Reference: ChEMBL document CHEMBL1201862, “PubChem BioAssay data set” (2004)
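All cell lines were grown in 96-well plates and treated with compound for 48 hours. Abbreviation: GI50, concentration required for 50% inhibition of growth.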 The source made the active and inactive calls. Cut-off read from the data, not from the text of the source: active = GI50 up to about 1.1 µM and inactive = higher.

What was measured:
Assay in all cases: NCI anticancer screen, dose series, 48 h
786-0 = system: 786-0
A498 = system: A498
A549 = system: A549
ACHN = system: ACHN
CAKI-1 = system: CAKI-1
CCRF-CEM = system: CCRF-CEM
COLO 205 = system: COLO 205
DLD-1 = system: DLD-1
DMS-114 = system: DMS-114
DMS-273 = system: DMS-273
EKVX = system: EKVX
HCC 2998 = system: HCC 2998
HCT-116 = system: HCT-116
HCT-15 = system: HCT-15
HL-60 = system: HL-60
HOP-18 = system: HOP-18
HOP-62 = system: HOP-62
HOP-92 = system: HOP-92
HT-29 = system: HT-29
IGROV-1 = system: IGROV-1
K562 = system: K562
KM-20L2 = system: KM-20L2
KM12 = system: KM12
LOX IMVI = system: LOX IMVI
LXFL 529 = system: LXFL 529
M14 = system: M14
M19-MEL = system: M19-MEL
MOLT-4 = system: MOLT-4
Malme-3M = system: Malme-3M
NCI-H226 = system: NCI-H226
NCI-H23 = system: NCI-H23
NCI-H460 = system: NCI-H460
NCI-H522 = system: NCI-H522
OVCAR-3 = system: OVCAR-3
OVCAR-4 = system: OVCAR-4
OVCAR-5 = system: OVCAR-5
OVCAR-8 = system: OVCAR-8
RPMI-8226 = system: RPMI-8226
SF-268 = system: SF-268
SF-295 = system: SF-295
SF-539 = system: SF-539
SK-MEL-28 = system: SK-MEL-28
SK-MEL-2 = system: SK-MEL-2
SK-MEL-5 = system: SK-MEL-5
SK-OV-3 = system: SK-OV-3
SN12C = system: SN12C
SNB-19 = system: SNB-19
SNB-75 = system: SNB-75
SR = system: SR
SW-620 = system: SW-620
TK-10 = system: TK-10
U-251 = system: U-251
UACC-257 = system: UACC-257
UACC-62 = system: UACC-62
UO-31 = system: UO-31
XF498 = system: XF498
RXF 393 = system: RXF 393
SNB-78 = system: SNB-78

SMILES: C=CC(=O)NCNC(=O)C=C
- GI50 (786-0): > 100 µM (inactive)
- GI50 (A498): > 100 µM (inactive)
- GI50 (A549): > 100 µM (inactive)
- GI50 (ACHN): > 100 µM (inactive)
- GI50 (CAKI-1): > 100 µM (inactive)
- GI50 (CCRF-CEM): > 100 µM (inactive)
- GI50 (COLO 205): > 100 µM (inactive)
- GI50 (DLD-1): > 100 µM (inactive)
- GI50 (DMS-114): > 100 µM (inactive)
- GI50 (DMS-273): > 100 µM (inactive)
- GI50 (EKVX): > 100 µM (inactive)
- GI50 (HCC 2998): > 100 µM (inactive)
- GI50 (HCT-116): > 100 µM (inactive)
- GI50 (HCT-15): > 100 µM
- GI50 (HL-60): > 100 µM (inactive)
- GI50 (HOP-18): > 100 µM (inactive)
- GI50 (HOP-62): > 100 µM (inactive)
- GI50 (HOP-92): > 100 µM (inactive)
- GI50 (HT-29): > 100 µM (inactive)
- GI50 (IGROV-1): > 100 µM (inactive)
- GI50 (K562): > 100 µM (inactive)
- GI50 (KM-20L2): > 100 µM (inactive)
- GI50 (KM12): > 100 µM (inactive)
- GI50 (LOX IMVI): > 100 µM (inactive)
- GI50 (LXFL 529): > 100 µM (inactive)
- GI50 (M14): > 100 µM (inactive)
- GI50 (M19-MEL): > 100 µM (inactive)
- GI50 (MOLT-4): > 100 µM (inactive)
- GI50 (Malme-3M): > 100 µM (inactive)
- GI50 (NCI-H226): > 100 µM (inactive)
- GI50 (NCI-H23): > 100 µM (inactive)
- GI50 (NCI-H460): > 100 µM (inactive)
- GI50 (NCI-H522): > 100 µM (inactive)
- GI50 (OVCAR-3): > 100 µM (inactive)
- GI50 (OVCAR-4): > 100 µM (inactive)
- GI50 (OVCAR-5): > 100 µM (inactive)
- GI50 (OVCAR-8): > 100 µM (inactive)
- GI50 (RPMI-8226): > 100 µM (inactive)
- GI50 (SF-268): > 100 µM (inactive)
- GI50 (SF-295): > 100 µM (inactive)
- GI50 (SF-539): > 100 µM (inactive)
- GI50 (SK-MEL-28): > 100 µM (inactive)
- GI50 (SK-MEL-2): > 100 µM (inactive)
- GI50 (SK-MEL-5): > 100 µM (inactive)
- GI50 (SK-OV-3): > 100 µM (inactive)
- GI50 (SN12C): > 100 µM (inactive)
- GI50 (SNB-19): > 100 µM (inactive)
- GI50 (SNB-75): > 100 µM (inactive)
- GI50 (SR): > 100 µM (inactive)
- GI50 (SW-620): > 100 µM (inactive)
- GI50 (TK-10): > 100 µM (inactive)
- GI50 (U-251): > 100 µM (inactive)
- GI50 (UACC-257): > 100 µM (inactive)
- GI50 (UACC-62): > 100 µM (inactive)
- GI50 (UO-31): > 100 µM (inactive)
- GI50 (XF498): > 100 µM (inactive)

SMILES: C=CCN1/C(=C(\C#N)c2nc3ccccc3[nH]2)Sc2c1nc[nH]c2=O
- GI50 (A498): > 100 µM (inactive)
- GI50 (A549): > 100 µM (inactive)
- GI50 (ACHN): > 100 µM (inactive)
- GI50 (CAKI-1): > 100 µM (inactive)
- GI50 (CCRF-CEM): > 100 µM (inactive)
- GI50 (COLO 205): > 100 µM (inactive)
- GI50 (DLD-1): > 100 µM (inactive)
- GI50 (DMS-114): > 100 µM (inactive)
- GI50 (DMS-273): > 100 µM (inactive)
- GI50 (EKVX): > 100 µM (inactive)
- GI50 (HCC 2998): > 100 µM (inactive)
- GI50 (HCT-116): > 100 µM (inactive)
- GI50 (HCT-15): > 100 µM
- GI50 (HL-60): > 100 µM (inactive)
- GI50 (HOP-62): > 100 µM (inactive)
- GI50 (HOP-92): > 100 µM (inactive)
- GI50 (HT-29): > 100 µM (inactive)
- GI50 (IGROV-1): > 100 µM (inactive)
- GI50 (K562): > 100 µM (inactive)
- GI50 (KM-20L2): > 100 µM (inactive)
- GI50 (KM12): > 100 µM (inactive)
- GI50 (LXFL 529): > 100 µM (inactive)
- GI50 (M14): > 100 µM (inactive)
- GI50 (M19-MEL): > 100 µM (inactive)
- GI50 (MOLT-4): > 100 µM (inactive)
- GI50 (Malme-3M): > 100 µM (inactive)
- GI50 (NCI-H23): > 100 µM (inactive)
- GI50 (NCI-H460): > 100 µM (inactive)
- GI50 (NCI-H522): > 100 µM (inactive)
- GI50 (OVCAR-3): > 100 µM (inactive)
- GI50 (OVCAR-4): > 100 µM (inactive)
- GI50 (OVCAR-5): > 100 µM (inactive)
- GI50 (OVCAR-8): > 100 µM (inactive)
- GI50 (RPMI-8226): > 100 µM (inactive)
- GI50 (RXF 393): 6.68 µM (inactive)
- GI50 (SF-268): > 100 µM (inactive)
- GI50 (SF-295): > 100 µM (inactive)
- GI50 (SF-539): > 100 µM (inactive)
- GI50 (SK-MEL-28): > 100 µM (inactive)
- GI50 (SK-MEL-2): > 100 µM (inactive)
- GI50 (SK-MEL-5): > 100 µM (inactive)
- GI50 (SK-OV-3): > 100 µM (inactive)
- GI50 (SN12C): > 100 µM (inactive)
- GI50 (SNB-19): > 100 µM (inactive)
- GI50 (SNB-75): 31.4 µM (inactive)
- GI50 (SNB-78): > 100 µM (inactive)
- GI50 (SR): > 100 µM (inactive)
- GI50 (SW-620): > 100 µM (inactive)
- GI50 (TK-10): > 100 µM (inactive)
- GI50 (U-251): 80.5 µM (inactive)
- GI50 (UACC-257): > 100 µM (inactive)
- GI50 (UACC-62): > 100 µM (inactive)
- GI50 (UO-31): > 100 µM (inactive)
- GI50 (XF498): > 100 µM (inactive)
